Experimental findings from ChEMBL document CHEMBL4196011, “The lead optimization of the polyamine conjugate of flavonoid with a naphthalene motif: Synthesis and biological evaluation” (Eur J Med Chem, 2018) are described below.

The subject of data set [1] is HT-29. In words: Antiproliferative activity against human HT-29 cells after 48 hrs by MTT assay. Type of data set: functional, cell-based. Conditions: HT-29, 48 h. (Tetrazolium dyes change colour on reduction, which living cells bring about.)
The test system of data set [2] is HCT-116. The data set is described as follows: Antiproliferative activity against human HCT116 cells after 48 hrs by MTT assay. Type of data set: functional, cell-based. The conditions noted are these: HCT-116, 48 h.
For data set [3], the system named is K562. The data set is described as follows: Antiproliferative activity against human K562 cells after 48 hrs by MTT assay. Type of data set: functional, cell-based. Conditions: K562, 48 h.
Data set [4] has as its system HeLa. In words: Antiproliferative activity against human HeLa cells after 48 hrs by MTT assay. Type of data set: functional, cell-based.
Data set [5] concerns HepG2. In words: Antiproliferative activity against human HepG2 cells after 48 hrs by MTT assay. It counts as functional, cell-based. The conditions noted are these: HepG2, 48 h.
The subject of data set [6] is Mus musculus. The data set is described as follows: Toxicity in Kunming mouse xenografted with […] H22 cells assessed as effect on heart weight index at 100 mg/kg, ig administered for 7 consecutive days. It counts as organism-based. Conditions: in vivo, po.
Data set [7] deals with Mus musculus. In words: Toxicity in Kunming mouse xenografted with […] H22 cells assessed as effect on liver weight index at 100 mg/kg, ig administered for 7 consecutive days. Type of data set: organism-based. The conditions noted are these: in vivo, po. A general note: A xenograft is tissue or cells of one species grown in another, often human tumour cells in immunodeficient mice.

Data set [8] has as its system Mus musculus. In words: Toxicity in Kunming mouse xenografted with […] H22 cells assessed as effect on spleen weight index at 100 mg/kg, ig administered for 7 consecutive days. Type of data set: organism-based. The conditions noted are these: in vivo, po.
For data set [9], the system named is H22. In words: Antitumor activity against […] xenografted in Kunming mouse assessed as tumor growth inhibition at 100 mg/kg, ig for 7 consecutive days measured on day 16. Conditions: H22, po, 384 h, read-out: TGI. It counts as functional.
Data set [10] has as its system Mus musculus. In words: Toxicity in Kunming mouse xenografted with […] H22 cells assessed as effect on body weight at 100 mg/kg, ig administered for 7 consecutive days. It counts as organism-based. Conditions: in vivo, po.
The test system of data set [11] is Mus musculus. In words: Toxicity in Kunming mouse xenografted with […] H22 cells assessed as effect on lung weight index at 100 mg/kg, ig administered for 7 consecutive days. It counts as organism-based. Conditions: in vivo, po.
Data set [12] relates to Mus musculus. The data set is described as follows: Toxicity in Kunming mouse xenografted with […] H22 cells assessed as effect on kidney weight index at 100 mg/kg, ig administered for 7 consecutive days. Type of data set: organism-based. Conditions: in vivo, po.
Data set [13] deals with H22. The data set is described as follows: Antitumor activity against […] xenografted in Kunming mouse assessed as tumor growth inhibition at 10 mg/kg, iv for 7 consecutive days measured on day 16. It counts as functional. Conditions: 384 h, read-out: TGI.
Data set [14] can be described thus: Toxicity in iv dosed Kunming mouse assessed as maximum tolerated dose administered for 7 consecutive days. Type of data set: organism-based. The conditions noted are these: in vivo.
Data set [15] is described as follows: Toxicity in Kunming mouse assessed as maximum tolerated dose administered for 7 consecutive days. The conditions noted are these: in vivo. Type of data set: organism-based.

With `NCCCNCc1c(-c2ccc(-c3ccccc3)cc2)oc2ccccc2c1=O`, the IC50 (as a rule, the concentration at which inhibition is half-maximal) is 24.7 µM in data set [1]; 23.4 µM in data set [2]; 41.6 µM in data set [3]; 20.5 µM in [4]; over 50 µM in data set [5].

Turning to `COc1c(-c2ccc(-c3ccccc3)cc2)oc2c(CNCCN)cccc2c1=O`, the IC50 in [1] worked out at 18.9 µM; in data set [2] it was 24.1 µM; in [3] it was 25.9 µM; in [4], 18.7 µM; in data set [5], 19.9 µM.

As for `O=C1c2c(O)ccc(O)c2C(=O)c2c(NCCNCCO)ccc(NCCNCCO)c21` [MITOXANTRONE], the IC50 was 21.7 µM in [1]; 1.61 µM in data set [2]; 4.55 µM in data set [3]; 2.35 µM in [4]; 18.6 µM in data set [5].

For the compound `COc1c(-c2ccc(-c3ccccc3)cc2)oc2c(CNCCCCN)cccc2c1=O`, the IC50 in [1] stood at 16.1 µM; in data set [2], 16.4 µM; in data set [3] it was 24.4 µM; in [4], 10.3 µM; in [5], 16.2 µM.

With `COc1ccc2cc(-c3oc4c(CNCCCCNCCCCN)cccc4c(=O)c3OC)ccc2c1Br`, the IC50 in [1] was found to be 21.8 µM; in data set [2], 19.3 µM; in data set [3], 18.5 µM; in data set [4], 9.63 µM; in data set [5], 14.3 µM.

With `O=c1c(O)c(-c2ccc(O)c(O)c2)oc2cc(O)cc(O)c12` [QUERCETIN], the Activity result in data set [6], in [7], in data set [8], in data set [10], in [11] and in data set [12] was “Non-Toxic” throughout. Moreover, the inhibition in vivo at 100 mg/kg in data set [9] is 34.3 to 38.7%.

As for `COc1c(-c2ccc(-c3ccccc3)cc2)oc2c(CNCCCN)cccc2c1=O.Cl.Cl`, in data set [13], the inhibition in vivo at 10 mg/kg worked out at 31.5%. For the same compound, the MTD (usually the largest dose that counted as tolerated) at 7 days in data set [14] amounted to 15 mg/kg. In addition, the IC50 in data set [1] came out at 8.25 µM; in data set [2], 5.1 µM; in [3], 9.3 µM; in data set [4] it was 7.8 µM; in data set [5] it was 10.4 µM.

`COc1c(-c2ccc(-c3ccccc3)cc2)oc2c(CNCCCCNCCCCN)cccc2c1=O`: the IC50 in data set [1] came out at 25.6 µM; in data set [2], 20.1 µM; in data set [3] it was 19.8 µM; in [4], 18.6 µM; in data set [5] it was 24.4 µM.

As to `Cl.Cl.NCCCNCC(=O)NCc1cccc2c(=O)cc(-c3cccc4ccccc34)oc12`, the MTD at 7 days in [15] was found to be 20 mg/kg.

Take `COc1c(-c2ccc(-c3ccccc3)cc2)oc2c(CNCCCNCCCCN)cccc2c1=O`: the IC50 in data set [1] came out at 31.4 µM; in [2], 14.8 µM; in data set [3] it was 15.8 µM; in data set [4], 13.9 µM; in data set [5], 22.2 µM.

Take `COc1ccc2cc(-c3oc4c(CNCCCN)cccc4c(=O)c3OC)ccc2c1Br`: the IC50 worked out at 23.1 µM in data set [1]; 12.8 µM in data set [2]; 19.2 µM in data set [3]; 11.2 µM in data set [4]; 15.1 µM in data set [5].
